Assay [1] has as its system SK-BR-3. As to the kind of experiment: Cytotoxicity against human SKBR3 cells after 72 hrs by SRB assay. The class given is functional, cell-based. Conditions: SK-BR-3, 72 h. A general note: In SRB staining, fixed cells bind dye roughly in proportion to their protein.
Assay [2] is described as follows: Cytotoxicity against human WI38 cells after 72 hrs by SRB assay. The class given is cell-based. Conditions: WI-38, 72 h.
Assay [3] has as its system Bel-7402. As to the kind of experiment: Cytotoxicity against human Bel7402 cells after 72 hrs by SRB assay. The settings on record: Bel-7402, 72 h. The class given is functional, cell-based.
In assay [4] the test system is HT-29. As to the kind of experiment: cells. The settings on record: Homo sapiens, HT-29, 72 h.
Description: Cytotoxicity against human HT-29 cells after 72 hrs by SRB assay
For assay [5], the system named is Calu-3. As to the kind of experiment: Cytotoxicity against human Calu3 cells after 72 hrs by SRB assay. Type of assay: functional, cell-based. The settings on record: Calu-3, 72 h.
The test system of assay [6] is NCI-H460. As to the kind of experiment: Cytotoxicity against human NCI-H460 cells after 72 hrs by SRB assay. The class given is functional, cell-based. The settings on record: NCI-H460, 72 h.
Assay [7] relates to SGC-7901. As to the kind of experiment: Cytotoxicity against human SGC7901 cells after 72 hrs by SRB assay. Type of assay: functional, cell-based. Conditions: SGC-7901, 72 h.

A value given as a limit tells only on which side of the number the result lay.

The IC50 is the concentration that gives 50% inhibition. Higher therefore signals a need for much substance. In the case of `CS(=O)(=O)CCNCc1ccc(-c2ccc3ncnc(Nc4ccc(OCc5cccc(F)c5)c(Cl)c4)c3c2)o1` [LAPATINIB], the IC50 in assay [1] was 0.017 µM; in assay [2] it was more than 10 µM.

For `COc1cc(-c2cnc(C)nc2-c2ccccc2O)cc(OC)c1OC`, the 50% inhibitory concentration (IC50) in assay [3] and in assay [2] was more than 10 µM throughout.

For `CNC(=O)c1ncc(-c2ccc(OC)cc2)c(-c2ccccc2O)n1`, the IC50 in assay [3] and in assay [2] was more than 10 µM each time.

`Cc1ncc(-c2ccccc2F)c(-c2ccccc2O)n1`: the IC50 in assay [3] and in assay [2] was more than 10 µM each time.

Turning to `Cc1ncc(-c2ccc(NC(=O)OC(C)(C)C)cc2)c(-c2ccccc2O)n1`, the IC50 in assay [3] and in assay [2] was more than 10 µM each time.

Turning to `Cc1ncc(-c2cccc(C(F)(F)F)c2)c(-c2ccccc2O)n1`, the IC50 in assay [3] and in assay [2] was more than 10 µM in each case.

Turning to `Cc1ncc(-c2ccc(OC(F)(F)F)cc2)c(-c2ccccc2O)n1`, the IC50 in assay [3] and in assay [2] was more than 10 µM each time.

On to `COc1cc(-c2cnc(N)nc2-c2ccccc2O)cc(OC)c1OC`, for which the IC50 in assay [3] and in assay [2] was more than 10 µM each time.

For `Nc1ncc(-c2ccc(OC(F)(F)F)cc2)c(-c2ccccc2O)n1`, the IC50 in assay [3] and in assay [2] was more than 10 µM each time.

`Nc1ncc(-c2cccc(C(F)(F)F)c2)c(-c2ccccc2O)n1`: the IC50 in assay [3] and in assay [2] was more than 10 µM each time.

For the molecule `Nc1ncc(-c2ccc(OCCCOCc3ccccc3)cc2)c(-c2ccccc2O)n1`, the IC50 in assay [3] and in assay [2] was more than 10 µM in each case.

On to `Nc1ncc(-c2ccccc2F)c(-c2ccccc2O)n1`, for which the IC50 in assay [3] and in assay [2] was more than 10 µM in each case.

Regarding `Nc1ncc(-c2ccc(O)cc2)c(-c2ccccc2O)n1`, the IC50 in assay [3] and in assay [2] was more than 10 µM in each case.

Regarding `COc1cccc2c1C(=O)c1c(O)c3c(c(O)c1C2=O)C[C@@](O)(C(=O)CO)C[C@@H]3O[C@H]1C[C@H](N)[C@H](O)[C@H](C)O1` [DOXORUBICIN], the IC50 in assay [3] is 0.021 µM; in assay [2], more than 10 µM; in assay [4] it was 0.018 µM.

Consider `COC(=O)c1ncc(-c2ccc(OC)cc2)c(-c2ccccc2O)n1`, for which the IC50 in assay [3] and in assay [2] was more than 10 µM each time.

For the molecule `CC(=O)O[C@@]12CO[C@@H]1C[C@H](O)[C@@]1(C)C(=O)[C@H](O)C3=C(C)[C@@H](OC(=O)[C@H](O)[C@@H](NC(=O)OC(C)(C)C)c4ccccc4)C[C@@](O)([C@@H](OC(=O)c4ccccc4)[C@H]21)C3(C)C` [DOCETAXEL], the IC50 in assay [2] is more than 10 µM; in assay [5], 0.1 µM; in assay [6] it was 0.0097 µM; in assay [7], 0.0084 µM.

Regarding `Cc1ncc(-c2ccc(Cl)cc2)c(-c2ccccc2O)n1`, the IC50 in assay [3] and in assay [2] was more than 10 µM throughout.

As for `Nc1ncc(-c2ccc(OCCN3CCCC3)cc2)c(-c2ccccc2O)n1`, the IC50 in assay [3] and in assay [2] was more than 10 µM throughout.

As to `Cc1ncc(-c2ccc(N)cc2)c(-c2ccccc2O)n1`, the IC50 in assay [3] and in assay [2] was more than 10 µM in each case.

The values are drawn from ChEMBL document CHEMBL1139298, “Synthesis and biological evaluation of novel 2,4,5-substituted pyrimidine derivatives for anticancer activity” (Bioorg Med Chem Lett, 2009).
